Test results reported in ChEMBL document CHEMBL4507276 (2021).

What was measured:
[1] = biological target: Cyclin-dependent kinase 11A (Homo sapiens) (UniProt Q9UQ88); conditions: Compound concentration 1000.0 nM
[2] = biological target: Proto-oncogene tyrosine-protein kinase ROS (Homo sapiens) (UniProt P08922); conditions: Compound concentration 1000.0 nM
[3] = biological target: T1, Serine/threonine-protein kinase TAO3 (Homo sapiens) (UniProt Q9H2K8); conditions: Compound concentration 1000.0 nM
T1 sequence (whole entry): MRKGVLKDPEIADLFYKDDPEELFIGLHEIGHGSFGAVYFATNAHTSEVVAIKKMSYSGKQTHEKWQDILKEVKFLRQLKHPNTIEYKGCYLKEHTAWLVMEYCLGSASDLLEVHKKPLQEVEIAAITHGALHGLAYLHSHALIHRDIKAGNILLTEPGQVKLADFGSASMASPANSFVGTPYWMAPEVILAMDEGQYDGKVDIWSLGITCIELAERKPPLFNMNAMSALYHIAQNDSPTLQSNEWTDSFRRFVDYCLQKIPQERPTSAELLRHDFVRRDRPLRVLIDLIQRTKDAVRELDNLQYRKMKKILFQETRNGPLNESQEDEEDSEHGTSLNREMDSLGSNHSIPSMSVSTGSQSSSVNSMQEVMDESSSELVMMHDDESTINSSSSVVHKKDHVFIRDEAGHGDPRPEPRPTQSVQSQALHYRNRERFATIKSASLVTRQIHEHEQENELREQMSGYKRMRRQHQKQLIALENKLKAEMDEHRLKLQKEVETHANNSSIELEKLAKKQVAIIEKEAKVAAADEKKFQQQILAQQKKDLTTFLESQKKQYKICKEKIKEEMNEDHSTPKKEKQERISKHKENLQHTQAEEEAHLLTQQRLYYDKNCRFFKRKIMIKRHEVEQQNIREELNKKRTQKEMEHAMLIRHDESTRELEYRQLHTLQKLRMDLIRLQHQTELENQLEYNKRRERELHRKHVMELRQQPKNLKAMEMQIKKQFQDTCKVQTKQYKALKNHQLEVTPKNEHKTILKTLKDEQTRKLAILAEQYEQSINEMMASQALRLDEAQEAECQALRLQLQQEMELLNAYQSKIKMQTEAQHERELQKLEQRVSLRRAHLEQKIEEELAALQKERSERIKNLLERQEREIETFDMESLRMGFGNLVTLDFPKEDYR

[4] = biological target: Serine/threonine-protein kinase D1 (Homo sapiens) (UniProt Q15139); conditions: Compound concentration 1000.0 nM
[5] = biological target: Ephrin type-A receptor 7 (Homo sapiens) (UniProt Q15375); conditions: Compound concentration 1000.0 nM
[6] = biological target: Mitogen-activated protein kinase kinase kinase kinase 4 (Homo sapiens) (UniProt O95819); conditions: Compound concentration 1000.0 nM
[7] = biological target: ALK tyrosine kinase receptor (Homo sapiens) (UniProt Q9UM73); conditions: Compound concentration 1000.0 nM
[8] = biological target: Phosphatidylinositol 4-phosphate 5-kinase type-1 gamma (Homo sapiens) (UniProt O60331); conditions: Compound concentration 1000.0 nM
[9] = biological target: D(1B) dopamine receptor (Homo sapiens) (UniProt P21918); conditions: Compound concentration 10.0 uM
[10] = biological target: T2, 5-hydroxytryptamine receptor 1A (Homo sapiens) (UniProt P08908); conditions: Compound concentration 10.0 uM
T2 sequence (whole entry): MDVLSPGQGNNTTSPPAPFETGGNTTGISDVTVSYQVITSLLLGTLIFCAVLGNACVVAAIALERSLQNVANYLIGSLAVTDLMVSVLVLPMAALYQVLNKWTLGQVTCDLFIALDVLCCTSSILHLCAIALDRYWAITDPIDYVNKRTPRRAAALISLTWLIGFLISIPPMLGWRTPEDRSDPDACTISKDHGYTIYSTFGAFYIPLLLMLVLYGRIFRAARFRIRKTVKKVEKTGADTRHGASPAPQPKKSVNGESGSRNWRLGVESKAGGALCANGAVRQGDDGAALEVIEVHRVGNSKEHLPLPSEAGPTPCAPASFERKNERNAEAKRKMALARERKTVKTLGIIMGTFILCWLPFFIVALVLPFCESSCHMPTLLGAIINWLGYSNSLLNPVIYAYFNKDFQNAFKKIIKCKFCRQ

[11] = system: Mast/stem cell growth factor receptor Kit (Homo sapiens), P10721 [D816H]; conditions: Compound concentration 1000.0 nM
[12] = biological target: Mitogen-activated protein kinase kinase kinase 15 (Homo sapiens) (UniProt Q6ZN16); conditions: Compound concentration 1000.0 nM
[13] = biological target: Serine/threonine-protein kinase 38 (Homo sapiens) (UniProt Q15208); conditions: Compound concentration 1000.0 nM
[14] = system: Phosphatidylinositol 4,5-bisphosphate 3-kinase catalytic subunit alpha isoform (Homo sapiens), P42336 [E545A]; conditions: Compound concentration 1000.0 nM
[15] = biological target: Receptor-type tyrosine-protein kinase FLT3 (Homo sapiens) (UniProt P36888); conditions: Compound concentration 1000.0 nM
[16] = biological target: Dual specificity tyrosine-phosphorylation-regulated kinase 1A (Homo sapiens) (UniProt Q13627); conditions: Compound concentration 1000.0 nM
[17] = system: Proto-oncogene tyrosine-protein kinase receptor Ret (Homo sapiens), P07949 [V804L]; conditions: Compound concentration 1000.0 nM
[18] = biological target: Serine/threonine-protein kinase MRCK alpha (Homo sapiens) (UniProt Q5VT25); conditions: Compound concentration 1000.0 nM
[19] = biological target: Cyclin-dependent kinase 15 (Homo sapiens) (UniProt Q96Q40); conditions: Compound concentration 1000.0 nM
[20] = biological target: Serine/threonine-protein kinase BRSK2 (Homo sapiens) (UniProt Q8IWQ3); conditions: Compound concentration 1000.0 nM
[21] = biological target: Myosin-IIIa (Homo sapiens) (UniProt Q8NEV4); conditions: Compound concentration 1000.0 nM
[22] = system: Tyrosine-protein kinase ABL1 (Homo sapiens), P00519 [Q252H]; conditions: Compound concentration 1000.0 nM
[23] = biological target: Bone morphogenetic protein receptor type-1A (Homo sapiens) (UniProt P36894); conditions: Compound concentration 1000.0 nM
[24] = biological target: Dual specificity tyrosine-phosphorylation-regulated kinase 2 (Homo sapiens) (UniProt Q92630); conditions: Compound concentration 1000.0 nM
[25] = biological target: Hormonally up-regulated neu tumor-associated kinase (Homo sapiens) (UniProt P57058); conditions: Compound concentration 1000.0 nM
[26] = biological target: Serine/threonine-protein kinase 35 (Homo sapiens) (UniProt Q8TDR2); conditions: Compound concentration 1000.0 nM
[27] = system: Phosphatidylinositol 4,5-bisphosphate 3-kinase catalytic subunit alpha isoform (Homo sapiens), P42336 [H1047L]; conditions: Compound concentration 1000.0 nM

Chain of Serine/threonine-protein kinase D1 (Homo sapiens) (Q15139 whole entry): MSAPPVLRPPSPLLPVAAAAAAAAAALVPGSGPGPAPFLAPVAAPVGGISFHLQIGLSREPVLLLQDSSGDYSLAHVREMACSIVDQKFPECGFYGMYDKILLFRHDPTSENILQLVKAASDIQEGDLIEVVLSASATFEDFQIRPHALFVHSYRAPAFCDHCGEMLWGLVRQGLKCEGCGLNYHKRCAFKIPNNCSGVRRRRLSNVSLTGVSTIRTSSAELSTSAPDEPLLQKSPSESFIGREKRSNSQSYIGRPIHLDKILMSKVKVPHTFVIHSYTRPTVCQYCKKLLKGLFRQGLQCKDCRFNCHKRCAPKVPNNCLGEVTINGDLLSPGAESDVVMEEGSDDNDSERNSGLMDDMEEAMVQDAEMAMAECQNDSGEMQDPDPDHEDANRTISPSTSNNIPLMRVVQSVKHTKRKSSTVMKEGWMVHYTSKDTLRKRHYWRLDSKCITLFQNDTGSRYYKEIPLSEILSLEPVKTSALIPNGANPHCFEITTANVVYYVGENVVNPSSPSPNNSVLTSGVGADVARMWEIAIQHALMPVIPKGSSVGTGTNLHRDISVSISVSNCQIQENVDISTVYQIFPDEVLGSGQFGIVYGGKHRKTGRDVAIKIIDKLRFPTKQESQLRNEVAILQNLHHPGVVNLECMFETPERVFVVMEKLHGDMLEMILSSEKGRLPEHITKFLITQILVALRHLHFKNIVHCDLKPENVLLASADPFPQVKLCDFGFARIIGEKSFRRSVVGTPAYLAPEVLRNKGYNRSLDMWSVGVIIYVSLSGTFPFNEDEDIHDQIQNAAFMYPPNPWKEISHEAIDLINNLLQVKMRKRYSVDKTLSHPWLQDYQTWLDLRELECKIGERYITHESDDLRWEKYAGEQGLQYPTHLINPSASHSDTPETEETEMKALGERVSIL
Chain of Cyclin-dependent kinase 15 (Homo sapiens) (Q96Q40 whole entry): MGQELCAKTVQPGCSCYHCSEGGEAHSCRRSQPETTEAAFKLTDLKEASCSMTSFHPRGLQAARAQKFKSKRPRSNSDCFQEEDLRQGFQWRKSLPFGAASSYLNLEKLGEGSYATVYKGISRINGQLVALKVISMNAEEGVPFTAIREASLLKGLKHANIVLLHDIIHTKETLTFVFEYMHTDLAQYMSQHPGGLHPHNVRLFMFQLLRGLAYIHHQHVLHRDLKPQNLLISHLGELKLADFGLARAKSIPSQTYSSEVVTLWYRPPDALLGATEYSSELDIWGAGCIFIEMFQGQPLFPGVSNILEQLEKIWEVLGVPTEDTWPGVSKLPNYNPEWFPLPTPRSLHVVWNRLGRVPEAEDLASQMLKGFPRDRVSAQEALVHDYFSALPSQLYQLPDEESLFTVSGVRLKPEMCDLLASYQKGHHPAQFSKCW
Chain of Mitogen-activated protein kinase kinase kinase kinase 4 (Homo sapiens) (O95819 2-1239 limits assumed): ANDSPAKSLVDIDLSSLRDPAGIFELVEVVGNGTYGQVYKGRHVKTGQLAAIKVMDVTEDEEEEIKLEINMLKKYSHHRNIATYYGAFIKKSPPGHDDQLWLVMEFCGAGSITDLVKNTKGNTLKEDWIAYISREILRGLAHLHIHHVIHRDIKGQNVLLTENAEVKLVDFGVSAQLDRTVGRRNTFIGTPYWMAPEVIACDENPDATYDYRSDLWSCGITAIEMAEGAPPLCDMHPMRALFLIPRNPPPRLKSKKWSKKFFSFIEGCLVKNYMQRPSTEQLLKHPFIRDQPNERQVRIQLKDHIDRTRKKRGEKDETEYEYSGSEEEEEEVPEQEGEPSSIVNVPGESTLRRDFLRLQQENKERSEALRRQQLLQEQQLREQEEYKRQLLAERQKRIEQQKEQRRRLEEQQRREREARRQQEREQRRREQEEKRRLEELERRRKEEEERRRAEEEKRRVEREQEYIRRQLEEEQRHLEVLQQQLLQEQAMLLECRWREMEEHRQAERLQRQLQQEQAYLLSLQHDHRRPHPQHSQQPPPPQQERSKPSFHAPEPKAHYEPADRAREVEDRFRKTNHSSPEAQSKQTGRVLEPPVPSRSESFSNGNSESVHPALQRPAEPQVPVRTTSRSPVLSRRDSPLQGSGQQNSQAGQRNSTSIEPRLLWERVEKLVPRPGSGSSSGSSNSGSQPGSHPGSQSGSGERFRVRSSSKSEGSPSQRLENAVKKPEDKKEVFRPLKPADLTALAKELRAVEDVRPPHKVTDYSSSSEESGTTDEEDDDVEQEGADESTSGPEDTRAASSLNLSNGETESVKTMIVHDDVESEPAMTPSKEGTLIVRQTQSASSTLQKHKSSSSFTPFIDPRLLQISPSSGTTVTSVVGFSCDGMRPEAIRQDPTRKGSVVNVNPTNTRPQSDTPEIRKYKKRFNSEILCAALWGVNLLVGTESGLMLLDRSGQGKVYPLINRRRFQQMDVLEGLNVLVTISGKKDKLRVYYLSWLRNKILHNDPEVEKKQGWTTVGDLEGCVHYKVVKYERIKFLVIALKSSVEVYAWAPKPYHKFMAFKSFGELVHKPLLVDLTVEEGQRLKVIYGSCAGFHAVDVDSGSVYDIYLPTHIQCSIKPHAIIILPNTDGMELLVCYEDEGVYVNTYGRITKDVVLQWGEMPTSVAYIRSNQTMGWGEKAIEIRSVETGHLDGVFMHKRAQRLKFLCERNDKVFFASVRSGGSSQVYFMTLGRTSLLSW
Chain of Dual specificity tyrosine-phosphorylation-regulated kinase 2 (Homo sapiens) (Q92630 whole entry): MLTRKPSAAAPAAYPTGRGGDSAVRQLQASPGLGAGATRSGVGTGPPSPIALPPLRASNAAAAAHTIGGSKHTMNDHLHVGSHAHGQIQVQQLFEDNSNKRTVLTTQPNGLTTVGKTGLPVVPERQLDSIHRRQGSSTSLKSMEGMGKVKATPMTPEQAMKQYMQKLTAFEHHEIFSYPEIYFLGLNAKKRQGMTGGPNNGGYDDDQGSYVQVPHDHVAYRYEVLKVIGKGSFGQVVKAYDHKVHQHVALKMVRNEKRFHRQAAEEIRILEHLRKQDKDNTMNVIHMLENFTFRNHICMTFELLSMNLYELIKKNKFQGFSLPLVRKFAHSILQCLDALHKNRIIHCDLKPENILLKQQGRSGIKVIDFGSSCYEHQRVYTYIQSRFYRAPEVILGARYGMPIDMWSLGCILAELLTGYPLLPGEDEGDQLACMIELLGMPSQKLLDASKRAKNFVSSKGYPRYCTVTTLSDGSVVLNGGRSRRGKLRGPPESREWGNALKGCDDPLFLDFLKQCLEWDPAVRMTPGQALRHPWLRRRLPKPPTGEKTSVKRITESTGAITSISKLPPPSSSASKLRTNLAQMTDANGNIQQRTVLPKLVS
Chain of Myosin-IIIa (Homo sapiens) (Q8NEV4 whole entry): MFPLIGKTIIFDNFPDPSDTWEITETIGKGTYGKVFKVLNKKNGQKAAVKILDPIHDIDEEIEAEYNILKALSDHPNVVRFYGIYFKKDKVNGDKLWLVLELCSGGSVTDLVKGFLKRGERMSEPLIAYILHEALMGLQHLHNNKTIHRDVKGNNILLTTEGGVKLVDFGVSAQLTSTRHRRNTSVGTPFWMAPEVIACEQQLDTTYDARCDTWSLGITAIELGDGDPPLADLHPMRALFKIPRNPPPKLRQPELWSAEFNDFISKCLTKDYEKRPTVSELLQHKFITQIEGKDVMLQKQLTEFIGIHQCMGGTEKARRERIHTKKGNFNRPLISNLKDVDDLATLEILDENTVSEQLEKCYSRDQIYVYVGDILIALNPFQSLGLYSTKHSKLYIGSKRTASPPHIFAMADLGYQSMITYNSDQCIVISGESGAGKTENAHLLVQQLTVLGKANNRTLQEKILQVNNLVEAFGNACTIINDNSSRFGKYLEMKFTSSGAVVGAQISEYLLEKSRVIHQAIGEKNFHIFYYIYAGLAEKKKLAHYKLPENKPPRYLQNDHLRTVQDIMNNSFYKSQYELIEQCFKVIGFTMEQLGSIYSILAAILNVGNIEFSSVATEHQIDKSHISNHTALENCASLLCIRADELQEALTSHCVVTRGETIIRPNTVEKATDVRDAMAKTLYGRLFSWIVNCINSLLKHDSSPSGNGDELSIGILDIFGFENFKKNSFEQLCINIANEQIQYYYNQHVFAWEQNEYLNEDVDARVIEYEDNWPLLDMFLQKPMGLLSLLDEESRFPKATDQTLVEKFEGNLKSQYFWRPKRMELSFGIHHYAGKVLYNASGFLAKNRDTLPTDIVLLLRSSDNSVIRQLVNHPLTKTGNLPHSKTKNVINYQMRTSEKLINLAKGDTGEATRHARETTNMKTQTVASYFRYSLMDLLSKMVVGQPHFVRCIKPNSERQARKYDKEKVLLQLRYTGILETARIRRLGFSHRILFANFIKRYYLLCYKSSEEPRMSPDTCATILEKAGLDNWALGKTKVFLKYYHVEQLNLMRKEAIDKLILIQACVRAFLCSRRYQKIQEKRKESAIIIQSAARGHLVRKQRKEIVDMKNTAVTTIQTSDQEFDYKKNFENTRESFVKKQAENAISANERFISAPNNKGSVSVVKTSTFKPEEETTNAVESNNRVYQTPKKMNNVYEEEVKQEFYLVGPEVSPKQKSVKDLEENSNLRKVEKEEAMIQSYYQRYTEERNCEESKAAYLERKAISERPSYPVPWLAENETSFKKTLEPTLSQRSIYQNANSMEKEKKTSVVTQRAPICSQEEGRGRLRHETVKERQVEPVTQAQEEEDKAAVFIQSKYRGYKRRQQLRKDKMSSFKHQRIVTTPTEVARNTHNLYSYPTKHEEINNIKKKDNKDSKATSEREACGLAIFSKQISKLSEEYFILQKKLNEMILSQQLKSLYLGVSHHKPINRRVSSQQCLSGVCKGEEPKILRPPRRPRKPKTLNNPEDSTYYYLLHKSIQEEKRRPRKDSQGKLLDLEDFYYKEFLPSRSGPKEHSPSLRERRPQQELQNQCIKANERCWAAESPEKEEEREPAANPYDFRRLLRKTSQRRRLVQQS

Structure (SMILES)	residual activity [1] [%]	residual activity [2] [%]	residual activity [3] [%]	residual activity [4] [%]	residual activity [5] [%]	residual activity [6] [%]	residual activity [7] [%]	residual activity [8] [%]	inhibition [9] [%]	inhibition [10] [%]	residual activity [11] [%]	residual activity [12] [%]	residual activity [13] [%]	residual activity [14] [%]	residual activity [15] [%]	residual activity [16] [%]	residual activity [17] [%]	residual activity [18] [%]	residual activity [19] [%]	residual activity [20] [%]	other results
CN(C)C(=O)Cn1cc(-c2nc(C3(c4ccc(-c5cnc(N)nc5)cc4)CC3)no2)cn1 [BI 0153]	89	87	67	100	92	66	77	96	22.8	31.5	85	100	84	99	81	66	100	100	100	77	residual activity [21]: 100%; residual activity [22]: 48%; residual activity [23]: 87%; residual activity [24]: 81%; residual activity [25]: 96%; residual activity [26]: 94%; residual activity [27]: 73%
CN(C)C(=O)Cn1cc(-c2nc([C@@](C)(c3ccc(-c4cnc(N)nc4)cc3)C3CC3)no2)cn1 [BI 665915]	100	88	89	100	98	90	85	100	9.24	6.78	100	99	80	75	82	73	93	100	94	100	residual activity [21]: 100%; residual activity [22]: 0%; residual activity [23]: 100%; residual activity [24]: 89%; residual activity [25]: 100%; residual activity [26]: 88%; residual activity [27]: 100%
